Reference: patent US5847092A (Zambon Group S.p.A., priority 1994, dated 1998)
≈ marks a conversion by molar mass, not a printed value. Where two headings read alike, the source gives them in different places.

Tests used:
[1] = test system: Streptococcus pyogenes C 203; assay: In vivo antibacterial activity, experimental pulmonary infection in mouse; details: Streptococcus pyogenes, C203, ip, 240 h, intraperitoneal single dose, read-out: average protecting dose PD50
Protocol: The in vivo antibacterial activity of the compounds of formula (I), expressed as average protecting dose PD50 (mg/Kg), was evaluated by means of experimental pulmonary infection induced in mouse by Streptococcus pyogenes (example 23).
b) In vivo antibacterial activity
The therapeutical effectiveness, expressed as average protecting dose (PD50), of the considered compounds of formula (I) was evaluated by experimental pulmonary infection induced in mouse by Streptococcus pyogenesC 203.
Charles River albin mice (strain CD 1), of body weight comprised between 23-35 g, stabulated in groups of 6 for cage and normo-feeded with standard diet and water ad libitum were used. A suspension of S. pyogenes C 203 (corresponding about to 10^8 UFC) in tryptose broth (0.05 ml) was intranasally administered to each mouse anesthesized with a mixture of ethyl ether and chloroform.
The compounds under examination were intraperitoneally administered as a single dose, in 0.2% Tween suspension, 24 hours before or 1 hour after the infection.
Mice mortality observation was prolonged up to 10 days from the infection.
PD50 calculation, expressed as (mg/Kg), was carried out through the analysis of probit.
In vivo antibacterial activity, expressed as average protecting dose PD50 (mg/Kg), 24 hours before and 1 hour after the experimental pulmonary infection induced in mouse by Streptococcus pyogenes C 203, of the compounds 4, 10, 16-19, 21, 23, 26-27, 29-30, 33-35 and 38 and of the reference compounds Roxithromycin and Clarithromycin.

[2] = test system: Staphylococcus aureus PV 14; assay: In vitro antibacterial activity, MIC, broth microdilution; format: cell-based; details: Staphylococcus aureus, PV14; S. aureus PV 14; MHB; 37° C., 18 hours; read-out: minimum inhibiting concentration MIC
Protocol: (§1) a) In vitro antibacterial activity The determination of the minimum inhibiting concentrations (MIC), with respect to Gram-positive and Gram-negative bacteria was carried out through the micromethod of gradual broth dilution in double series [National Committee for Clinical Laboratory Standards, 1990; Methods for dilution antimicrobial susceptibility tests for bacteria that grow aerobically; Approved standards […], Villanova, Pa.], by using Mueller Hinton Broth (MHB) as a culture medium. In the case of […] bacteria, horse serum at 5% (Streptococcus pneumoniae and Streptococcus pyogenes) was added to the medium. Roxithromycin and Clarithromycin [The Merck Index, XI Ed., No. 8253 and 2340, respectively] were used as reference macrolides. MIC, expressed as (μg/ml), were determined after incubation of the microplates at 37° C. for 18 hours, evaluating the lowest antibiotic concentration enabling the inhibition of bacterial development.

[3] = test system: Klebsiella pneumoniae ZC 2; assay: as above; format: cell-based; details: Klebsiella pneumoniae, ZC2; K. pneumoniae ZC 2; MHB; 37° C., 18 hours; read-out: minimum inhibiting concentration MIC
Protocol: as §1

[4] = test system: Streptococcus pyogenes A 26; assay: as above; format: cell-based; details: Streptococcus pyogenes, A26; S. pyogenes A 26; MHB + 5% horse serum; 37° C., 18 hours; read-out: minimum inhibiting concentration MIC
Protocol: as §1

[5] = test system: Streptococcus pneumoniae BS 3; assay: as above; format: cell-based; details: Streptococcus pneumoniae, BS3; S. pneumoniae BS 3; MHB + 5% horse serum; 37° C., 18 hours; read-out: minimum inhibiting concentration MIC
Protocol: as §1

[6] = test system: Streptococcus pyogenes C 203; assay: as above; format: cell-based; details: Streptococcus pyogenes, C203; S. pyogenes C 203; MHB + 5% horse serum; 37° C., 18 hours; read-out: minimum inhibiting concentration MIC
Protocol: as §1

[7] = test system: Enterococcus faecalis ATCC 29212; assay: as above; format: cell-based; details: Enterococcus faecalis, ATCC29212; E. faecalis ATCC 29212; MHB; 37° C., 18 hours; read-out: minimum inhibiting concentration MIC
Protocol: as §1

[8] = test system: Escherichia coli ATCC 25922; assay: as above; format: cell-based; details: Escherichia coli, ATCC25922; E. coli ATCC 25922; MHB; 37° C., 18 hours; read-out: minimum inhibiting concentration MIC
Protocol: as §1

[9] = test system: Streptococcus pneumoniae BS 4; assay: as above; format: cell-based; details: Streptococcus pneumoniae, BS4; S. pneumoniae BS 4; MHB + 5% horse serum; 37° C., 18 hours; read-out: minimum inhibiting concentration MIC
Protocol: as §1

[10] = literature; cited from earlier work
[11] = literature; cited from earlier work; remark: listed apart in the source
[12] = test system: Gram-positive and Gram-negative bacteria; details: literature; cited from earlier work

Compound	ED50 ([1]; 1 hour after infection)	ED50 ([1]; 24 hours before infection)	MIC [2]	MIC [3]	MIC [4]	MIC [5]	MIC [6]	MIC [7]	MIC [8]	MIC [9]	pharmacokinetic properties / bioavailability (in words) [10]	stability to the acids (in words) [11]	spectrum of activity in vitro (in words) [12]
CC[C@H]1OC(=O)[C@H](C)[C@@H](O[C@H]2C[C@@](C)(OC)[C@@H](O)[C@H](C)O2)[C@H](C)[C@@H](O[C@@H]2O[C@H](C)C[C@H](N(C)C)[C@H]2O)[C@](C)(O)C[C@@H](C)/C(=N\OCCNCCCCCCNCc2ccccc2[N+](=O)[O-])[C@H](C)[C@@H](O)[C@]1(C)O [Compound 33, Erythromycin A (E)-9-[0-[2-[6-[(2-nitrophenyl)methylamino]hexylamino]ethyl]oxime]]	1.61 mg/kg	6.11 mg/kg	0.5 µg/mL (≈ 0.487 µM)	16 µg/mL (≈ 15.6 µM)	0.0039 µg/mL	0.0039 µg/mL	0.00097 µg/mL	2 µg/mL (≈ 1.95 µM)	4 µg/mL (≈ 3.9 µM)	0.0039 µg/mL			
CC[C@H]1OC(=O)[C@H](C)[C@@H](O[C@H]2C[C@@](C)(OC)[C@@H](O)[C@H](C)O2)[C@H](C)[C@@H](O[C@@H]2O[C@H](C)C[C@H](N(C)C)[C@H]2O)[C@](C)(O)C[C@@H](C)/C(=N\OCCNCCCCCCNCc2cccc([N+](=O)[O-])c2)[C@H](C)[C@@H](O)[C@]1(C)O [Compound 34, Erythromycin A (E)-9-[0-[2-[6-[(3-nitrophenyl)methylamino]hexylamino]ethyl]oxime]]	1.88 mg/kg	6.8 mg/kg	0.25 µg/mL (≈ 0.244 µM)	8 µg/mL (≈ 7.79 µM)	0.0078 µg/mL	0.0019 µg/mL	0.0039 µg/mL	1 µg/mL (≈ 0.974 µM)	1 µg/mL (≈ 0.974 µM)	0.0039 µg/mL			
CC[C@H]1OC(=O)[C@H](C)[C@@H](O[C@H]2C[C@@](C)(OC)[C@@H](O)[C@H](C)O2)[C@H](C)[C@@H](O[C@@H]2O[C@H](C)C[C@H](N(C)C)[C@H]2O)[C@](C)(O)C[C@@H](C)/C(=N\OCCNCCCCCCNCc2ccc([N+](=O)[O-])cc2)[C@H](C)[C@@H](O)[C@]1(C)O [Compound 35]	3 mg/kg	6 mg/kg	0.25 µg/mL (≈ 0.244 µM)	4 µg/mL (≈ 3.9 µM)	0.0078 µg/mL	0.0039 µg/mL	0.0019 µg/mL	0.5 µg/mL (≈ 0.487 µM)	1 µg/mL (≈ 0.974 µM)	0.0039 µg/mL			
CC[C@H]1OC(=O)[C@H](C)[C@@H](O[C@H]2C[C@@](C)(OC)[C@@H](O)[C@H](C)O2)[C@H](C)[C@@H](O[C@@H]2O[C@H](C)C[C@H](N(C)C)[C@H]2O)[C@](C)(O)C[C@@H](C)/C(=N\OCCN(C)CCCCCCN(C)Cc2ccccc2)[C@H](C)[C@@H](O)[C@]1(C)O [Compound 38, Erythromycin A (E)-9-[0-[2-[N-methyl-6-(N'-methyl-N'-phenylmethylamino)hexylamino]ethyl]oxime]]	11.8 mg/kg	11.8 mg/kg	0.5 µg/mL (≈ 0.495 µM)	32 µg/mL (≈ 31.7 µM)	0.0156 µg/mL	0.0078 µg/mL	0.0078 µg/mL	8 µg/mL (≈ 7.93 µM)	8 µg/mL (≈ 7.93 µM)	0.0039 µg/mL			
CC[C@H]1OC(=O)[C@H](C)[C@@H](O[C@H]2C[C@@](C)(OC)[C@@H](O)[C@H](C)O2)[C@H](C)[C@@H](O[C@@H]2O[C@H](C)C[C@H](N(C)C)[C@H]2O)[C@](C)(O)C[C@@H](C)C(=NOCCN(CC)CC)[C@H](C)[C@@H](O)[C@]1(C)O [Erythromycin A 9-[0-[(2-diethylamino)ethyl]oxime]]											better pharmacokinetic properties	superior stability to the acids	comparable to that of Erythromycin A
